In publication PMC8776995 (Frontiers in Chemistry, 2022):
“And” between values parts separate entries of the source, which are not always exact repeats. Equal values may be shown once.

Legend:
wild-type EGFR = wild-type EGFR (Homo sapiens, UniProt P00533); assay: EGFR kinase assay (ELISA); conditions: for IC50: IC50 (μM) EGFR, ELISA, 3 μmol/L ATP; for inhibition at 100 fM: concentration 0.0001 nM (reference for normalisation); for A450: raw ELISA absorbance
H460 cells = assay: CCK-8 antiproliferation assay, H460; conditions: for Inhibitory efficacy: H460 cells; for IC50: NCI-H460, 48 h, read-out: IC50 (μM) H460, CCK-8, 48 h, average ± SD of three independent experiments
A549 cells = assay: CCK-8 antiproliferation assay, A549; conditions: for Inhibitory efficacy: A549 cells; for IC50: A549, 48 h, read-out: IC50 (μM) A549, CCK-8, 48 h, average ± SD of three independent experiments
PC-9 cells = assay: CCK-8 antiproliferation assay, PC-9; conditions: for IC50: PC-9, 48 h, read-out: IC50 (μM) PC-9; for Inhibitory efficacy: single repeats (Repeat 1-3), given as fraction
H1975 cells = assay: CCK-8 antiproliferation assay, H1975; conditions: for Inhibitory efficacy: H1975 cells; for IC50: NCI-H1975, 48 h, read-out: IC50 (μM) H1975, CCK-8, 48 h, average ± SD of three independent experiments
Procedure: The compounds were dissolved in DMSO to make a 20 μM stock solution and diluted to the concentration of working solutions with complete growth medium before administration.
Cells were seeded in 96-well plates: 3,000–5,000 cells/well in 100 ul. One day after seeding, the test compounds at concentration between 1.0 and 16.0 μ M or 0.1% DMSO (as control) were added to cells in triplicate. 48 h later, CCK-8 was added and incubated the plate for 1–4 h in the incubator. The absorbance at 450 nm were measured using a microplate reader (Bio-Tek).

[1] = concentration 0.03 nM, one value per replicate column, 3e-05 µM
[2] = concentration 0.3 nM, one value per replicate column
[3] = concentration 0.3 nM, one value per replicate column, 0.0003 µM
[4] = concentration 3 nM, one value per replicate column
[5] = concentration 3 nM, one value per replicate column, 0.003 µM
[6] = concentration 30 nM, one value per replicate column
[7] = concentration 30 nM, one value per replicate column, 0.03 µM
[8] = concentration 300 nM, one value per replicate column
[9] = concentration 300 nM, one value per replicate column, 0.3 µM
[10] = concentration 3000 nM, one value per replicate column
[11] = concentration 3000 nM, one value per replicate column, 3 µM
[12] = concentration 30000 nM, one value per replicate column
[13] = concentration 30000 nM, one value per replicate column, 30 µM
[14] = 1uM, given as fraction, Repeat 1-3
[15] = 2uM, given as fraction, Repeat 1-3
[16] = 4uM, given as fraction, Repeat 1-3
[17] = 8uM, given as fraction, Repeat 1-3
[18] = Homo sapiens, NCI-H460, read-out: Inhibitory efficacy, H460 cells, 1uM, given as fraction, Repeat 1-3
[19] = Homo sapiens, NCI-H460, read-out: Inhibitory efficacy, H460 cells, 2uM, given as fraction, Repeat 1-3
[20] = Homo sapiens, NCI-H460, read-out: Inhibitory efficacy, H460 cells, 8uM, given as fraction, Repeat 1-3
[21] = 16uM, given as fraction, Repeat 1-3
[22] = Homo sapiens, A549, read-out: Inhibitory efficacy, A549 cells, 16uM, given as fraction, Repeat 1-3
[23] = Homo sapiens, NCI-H1975, read-out: Inhibitory efficacy, H1975 cells, 8uM, given as fraction, Repeat 1-3
[24] = Homo sapiens, NCI-H1975, read-out: Inhibitory efficacy, H1975 cells, 16uM, given as fraction, Repeat 1-3

Chain of wild-type EGFR (P00533 25-1210): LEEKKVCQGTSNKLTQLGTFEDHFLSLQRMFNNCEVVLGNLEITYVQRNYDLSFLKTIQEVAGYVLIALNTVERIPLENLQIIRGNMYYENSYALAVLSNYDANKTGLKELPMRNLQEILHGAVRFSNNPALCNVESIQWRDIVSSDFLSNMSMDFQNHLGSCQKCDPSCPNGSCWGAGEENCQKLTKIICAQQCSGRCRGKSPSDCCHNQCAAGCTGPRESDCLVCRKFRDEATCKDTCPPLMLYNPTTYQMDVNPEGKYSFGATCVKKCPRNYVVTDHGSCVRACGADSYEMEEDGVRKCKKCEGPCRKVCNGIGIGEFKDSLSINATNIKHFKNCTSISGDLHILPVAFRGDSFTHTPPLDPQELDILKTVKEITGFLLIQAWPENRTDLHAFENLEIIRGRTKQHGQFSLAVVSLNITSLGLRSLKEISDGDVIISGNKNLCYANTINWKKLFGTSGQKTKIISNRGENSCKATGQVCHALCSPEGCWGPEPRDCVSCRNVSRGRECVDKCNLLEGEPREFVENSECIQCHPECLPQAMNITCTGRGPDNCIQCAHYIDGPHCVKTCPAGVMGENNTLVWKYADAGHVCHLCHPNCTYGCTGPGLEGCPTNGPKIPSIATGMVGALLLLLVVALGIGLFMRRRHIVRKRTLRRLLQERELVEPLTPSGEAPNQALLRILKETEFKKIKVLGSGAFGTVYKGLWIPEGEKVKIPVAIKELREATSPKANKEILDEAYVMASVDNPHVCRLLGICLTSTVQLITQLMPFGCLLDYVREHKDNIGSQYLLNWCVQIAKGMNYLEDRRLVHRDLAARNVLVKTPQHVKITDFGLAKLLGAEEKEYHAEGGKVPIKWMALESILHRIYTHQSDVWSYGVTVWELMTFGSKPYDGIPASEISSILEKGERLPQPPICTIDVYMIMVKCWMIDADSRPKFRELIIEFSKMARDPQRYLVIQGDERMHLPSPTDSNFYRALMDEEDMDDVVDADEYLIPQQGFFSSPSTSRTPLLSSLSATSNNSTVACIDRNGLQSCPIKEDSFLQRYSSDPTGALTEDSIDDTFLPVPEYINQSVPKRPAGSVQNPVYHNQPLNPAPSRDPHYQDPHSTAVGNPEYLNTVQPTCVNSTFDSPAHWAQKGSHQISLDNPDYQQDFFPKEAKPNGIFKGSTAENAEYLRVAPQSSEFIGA

## COCCOc1cc2ncnc(Nc3cccc(-c4cn(Cc5ccccc5I)nn4)c3)c2cc1OCCOC [e2, [6,7-Bis-(2-methoxy-ethoxy)-quinazolin-4-yl]-{3-[1-(2-iodo-benzyl)-1H-[1,2,3]triazol-4-yl]-phenyl}-amine]
other
  melting point: 93 to 96 °C
wild-type EGFR
  IC50: 0.32 µM
wild-type EGFR; one value per replicate column
  inhibition at 100 fM: 0%
wild-type EGFR; [1]
  Inhibition: 2.548 and 6.494
wild-type EGFR; [2]
  inhibition at 0.0003 µM: 10.8%
wild-type EGFR; [3]
  Inhibition: 7.792
wild-type EGFR; [4]
  inhibition at 0.003 µM: 31.8%
wild-type EGFR; [5]
  Inhibition: 24.6753
wild-type EGFR; [6]
  inhibition at 0.03 µM: 31.8%
wild-type EGFR; [7]
  Inhibition: 27.2727
wild-type EGFR; [8]
  inhibition at 0.3 µM: 49%
wild-type EGFR; [9]
  Inhibition: 35.7143
wild-type EGFR; [10]
  inhibition at 3 µM: 63.7%
wild-type EGFR; [11]
  Inhibition: 56.4935
wild-type EGFR; [12]
  inhibition at 30 µM: 97.5%
wild-type EGFR; [13]
  Inhibition: 98.0519
wild-type EGFR; concentration 0.0001 nM
  A450: 0.404 and 0.396
wild-type EGFR; concentration 0.03 nM
  A450: 0.4 and 0.386
wild-type EGFR; concentration 0.3 nM
  A450: 0.387 and 0.384
wild-type EGFR; concentration 3 nM
  A450: 0.354 and 0.358
wild-type EGFR; concentration 30 nM
  A450: 0.354
wild-type EGFR; concentration 300 nM
  A450: 0.327 and 0.341
wild-type EGFR; concentration 3000 nM
  A450: 0.304 and 0.309
wild-type EGFR; concentration 30000 nM
  A450: 0.251 and 0.245
H460 cells; [14]
  Inhibitory efficacy: 0.124 and 0.2238
H460 cells; [15]
  Inhibitory efficacy: 0.2881 and 0.2336
H460 cells; [16]
  Inhibitory efficacy: 0.2321 and 0.3138
H460 cells; [17]
  Inhibitory efficacy: 0.5164 and 0.5844
H460 cells; Homo sapiens
  IC50: 9.08 ± 2.81 µM
H460 cells; [18]
  inhibition at 1 µM: 11.6%
H460 cells; [19]
  inhibition at 2 µM: 33.4%
H460 cells; Homo sapiens, NCI-H460, read-out: Inhibitory efficacy, H460 cells, 4uM, given as fraction, Repeat 1-3
  inhibition at 4 µM: 16%
H460 cells; [20]
  inhibition at 8 µM: 46.6%
A549 cells; [16]
  Inhibitory efficacy: 0.4029 and 0.476
A549 cells; [17]
  Inhibitory efficacy: 0.4092 and 0.465
A549 cells; [21]
  Inhibitory efficacy: 0.5413 and 0.5397
A549 cells; Homo sapiens
  IC50: 11.8 ± 1.7 µM
A549 cells; Homo sapiens, A549, read-out: Inhibitory efficacy, A549 cells, 4uM, given as fraction, Repeat 1-3
  inhibition at 4 µM: 29.4%
A549 cells; Homo sapiens, A549, read-out: Inhibitory efficacy, A549 cells, 8uM, given as fraction, Repeat 1-3
  inhibition at 8 µM: 41.8%
A549 cells; [22]
  inhibition at 16 µM: 50.4%
PC-9 cells; Homo sapiens
  IC50: 11.6 ± 3.64 µM
PC-9 cells; Homo sapiens, PC-9, read-out: Inhibitory efficacy, PC-9, 1uM, single repeats (Repeat 1-3), given as fraction
  inhibition at 1 µM: 7.63%
PC-9 cells; Homo sapiens, PC-9, read-out: Inhibitory efficacy, PC-9, 2uM, single repeats (Repeat 1-3), given as fraction
  inhibition at 2 µM: 20.6%
PC-9 cells; Homo sapiens, PC-9, read-out: Inhibitory efficacy, PC-9, 4uM, single repeats (Repeat 1-3), given as fraction
  inhibition at 4 µM: 28.9%
PC-9 cells; Homo sapiens, PC-9, read-out: Inhibitory efficacy, PC-9, 8uM, single repeats (Repeat 1-3), given as fraction
  inhibition at 8 µM: 36.1%
PC-9 cells; Homo sapiens, PC-9, read-out: Inhibitory efficacy, PC-9, 16uM, single repeats (Repeat 1-3), given as fraction
  inhibition at 16 µM: 49.1%
PC-9 cells; PC-9, 1uM, 1 µM
  Inhibitory efficacy: 0.07634 and 0.0877
PC-9 cells; PC-9, 2uM, 2 µM
  Inhibitory efficacy: 0.1331 and 0.1085
PC-9 cells; PC-9, 4uM, 4 µM
  Inhibitory efficacy: 0.3461 and 0.3328
PC-9 cells; PC-9, 8uM, 8 µM
  Inhibitory efficacy: 0.365 and 0.4549
PC-9 cells; PC-9, 16uM, 16 µM
  Inhibitory efficacy: 0.6025 and 0.6224
H1975 cells; [17]
  Inhibitory efficacy: 0.3905 and 0.2825
H1975 cells; [21]
  Inhibitory efficacy: 0.5504 and 0.4649
H1975 cells; Homo sapiens
  IC50: 15.7 ± 2.76 µM
H1975 cells; [23]
  inhibition at 8 µM: 37.6%
H1975 cells; [24]
  inhibition at 16 µM: 48.4%

## COCCOc1cc2ncnc(Nc3cccc(-c4cn(Cc5ccccc5Br)nn4)c3)c2cc1OCCOC [e3, [6,7-Bis-(2-methoxy-ethoxy)-quinazolin-4-yl]-{3-[1-(2-bromo-benzyl)-1H-[1,2,3]triazol-4-yl]-phenyl}-amine]
other
  melting point: 94 to 97 °C
wild-type EGFR
  IC50: 68 µM
wild-type EGFR; one value per replicate column
  inhibition at 100 fM: 0%
wild-type EGFR; concentration 0.03 nM, one value per replicate column
  inhibition at 30 pM: 11.8%
wild-type EGFR; [1]
  Inhibition: 14.7465
wild-type EGFR; [2]
  inhibition at 0.0003 µM: 17.6%
wild-type EGFR; [3]
  Inhibition: 17.0507
wild-type EGFR; [4]
  inhibition at 0.003 µM: 19.3%
wild-type EGFR; [5]
  Inhibition: 17.0507
wild-type EGFR; [6]
  inhibition at 0.03 µM: 37.4%
wild-type EGFR; [7]
  Inhibition: 28.1106
wild-type EGFR; [8]
  inhibition at 0.3 µM: 42.2%
wild-type EGFR; [9]
  Inhibition: 35.4839
wild-type EGFR; [10]
  inhibition at 3 µM: 42.8%
wild-type EGFR; [11]
  Inhibition: 36.8664
wild-type EGFR; [12]
  inhibition at 30 µM: 44.9%
wild-type EGFR; [13]
  Inhibition: 39.1705
wild-type EGFR; concentration 0.0001 nM
  A450: 0.398 and 0.464
wild-type EGFR; concentration 0.03 nM
  A450: 0.376 and 0.432
wild-type EGFR; concentration 0.3 nM
  A450: 0.365 and 0.427
wild-type EGFR; concentration 3 nM
  A450: 0.362 and 0.427
wild-type EGFR; concentration 30 nM
  A450: 0.328 and 0.403
wild-type EGFR; concentration 300 nM
  A450: 0.319 and 0.387
wild-type EGFR; concentration 3000 nM
  A450: 0.318 and 0.384
wild-type EGFR; concentration 30000 nM
  A450: 0.314 and 0.379
H460 cells; [14]
  Inhibitory efficacy: 0.2775 and 0.3081
H460 cells; [15]
  Inhibitory efficacy: 0.3143 and 0.3387
H460 cells; [17]
  Inhibitory efficacy: 0.3004 and 0.3491
H460 cells; Homo sapiens
  IC50: > 100 µM
H460 cells; [18]
  inhibition at 1 µM: 30.3%
H460 cells; [19]
  inhibition at 2 µM: 35%
H460 cells; [20]
  inhibition at 8 µM: 29%
A549 cells; [21]
  Inhibitory efficacy: 0.1506 and 0.2274
A549 cells; Homo sapiens
  IC50: > 100 µM
A549 cells; [22]
  inhibition at 16 µM: 15.2%
PC-9 cells; Homo sapiens
  IC50: > 100 µM
H1975 cells; [16]
  Inhibitory efficacy: 0.09844 and 0.1507
H1975 cells; [17]
  Inhibitory efficacy: 0.1976 and 0.2347
H1975 cells; [21]
  Inhibitory efficacy: 0.494 and 0.5082
H1975 cells; Homo sapiens
  IC50: 16.8 ± 1.02 µM
H1975 cells; Homo sapiens, NCI-H1975, read-out: Inhibitory efficacy, H1975 cells, 4uM, given as fraction, Repeat 1-3
  inhibition at 4 µM: 11.4%
H1975 cells; [23]
  inhibition at 8 µM: 25%
H1975 cells; [24]
  inhibition at 16 µM: 44.1%
